Reference: patent US10463658B2, “Method of inhibiting FLT3 kinase” (AROG Pharmaceuticals, LLC, priority 2013, dated 2019)
Where a chain is given by its changes, count along the chain named.

Key:
FLT3 wild type = biological target: T1, FLT3 wild type (Homo sapiens, UniProt P36888); experiment: KINOMEscan KdElect competitive binding assay, wild type FLT3; settings: CP-673,451 as tosylate salt; read-out: Binding Constant (Kd), FLT3 wild type
T1 construct: host or cells: E. coli BL21-derived host (T7 phage) or HEK-293
T1 sequence (P36888 610-943 limits assumed): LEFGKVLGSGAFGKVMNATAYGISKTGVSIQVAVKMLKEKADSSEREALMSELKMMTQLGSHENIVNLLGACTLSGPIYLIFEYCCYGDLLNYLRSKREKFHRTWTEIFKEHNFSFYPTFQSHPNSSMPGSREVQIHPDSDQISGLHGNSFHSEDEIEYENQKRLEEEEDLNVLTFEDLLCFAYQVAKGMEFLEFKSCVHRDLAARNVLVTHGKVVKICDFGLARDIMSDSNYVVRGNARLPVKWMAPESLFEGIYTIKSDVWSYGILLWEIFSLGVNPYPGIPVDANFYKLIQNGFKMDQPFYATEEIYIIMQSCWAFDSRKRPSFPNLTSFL

FLT3 D835Y = biological target: T2, FLT3 D835Y (Homo sapiens, UniProt P36888, D835Y); experiment: KINOMEscan KdElect competitive binding assay, FLT3 D835Y; settings: tosylate salt
T2 construct: host or cells: E. coli BL21-derived host (T7 phage) or HEK-293
T2 sequence (P36888 610-943 D835Y limits assumed): T1 sequence (P36888 610-943 limits assumed) with D226Y
Description: (§1) Competitive binding assay.
(§2) The lysates were then centrifuged and filtered.

FLT3 R834Q = biological target: T3, FLT3 R834Q (Homo sapiens, UniProt P36888, R834Q); experiment: KINOMEscan KdElect competitive binding assay, FLT3 R834Q; settings: tosylate salt; read-out: Binding Constant (Kd), FLT3 R834Q
T3 construct: host or cells: E. coli BL21-derived host (T7 phage) or HEK-293
T3 sequence (P36888 610-943 R834Q limits assumed): T1 sequence (P36888 610-943 limits assumed) with R225Q
Description: as §1, §2

SMILES: COCCOc1ccc2c(c1)ncn2-c1ccc2cccc(N3CCC(N)CC3)c2n1 [CP-673,451]
- Kd (FLT3 wild type): 0.35 nM
- Kd (FLT3 D835Y): 0.1 nM
- Kd (FLT3 R834Q): 0.65 nM
